# According to patent US5484924A, “Imidazonaphthyridine derivatives” (Kyowa Hakko Kogyo Co., Ltd., priority 1991, dated 1996):
# System: tracheae from guinea pigs
# Assay: passive Shultz-Dale reaction (broncho-dilative activity), relaxation of antigen-contracted tracheal strips
# Parameters: species or system Male Hartley guinea pigs
# Details: Cavia porcellus; concentration of 50% relaxation; passively sensitized guinea pig tracheal zig-zag strips, 37° C., antigen (egg white albumin) 1 μg/ml
# Experimental: Effect on passive Shultz-Dale reaction (broncho-dilative activity)
# Male Hartley guinea pigs weighing 350 to 500 g were passively sensitized by intraperitoneal injection of rabbit anti-OA serum prepared in advance by the method of Koda et al. [Folia Pharmacol., Japon 66, 237, (1970)]. After 24 hours, tracheae were removed from guinea pigs and used for experiment. The zig-zag strips of the tracheae were prepared by the method of Emmerson and Mackay [J. Pharm. Pharmacol., 31, 798, (1979)]. The strips were suspended in Krebs-Henseleit solution at 37° C. under aeration of a mixed gas of 95% oxygen and 5% carbon dioxide, and equilibrated for one hour. Then, antigen (egg white albumin) was introduced in the solution (final concentration; 1 μg/ml), and the contraction was measured by isotonic transducer (TD-112s, made by Nihon Kohden K. K., Japan) and recorded on a recorder (Type 3066, made by Yokogawa-Hokushin Denki, K. K. Japan). After the contraction curves reached a plateau, the test compounds were successively added in order to get cumulative concentration-relaxation curves. The concentration of 50% relaxation rate (IC50) was calculated from the regression line, which was obtained from the cumulative concentration-relaxation curves.
smiles,measurement,value
"S=c1c2[nH]cnc2c2cccnc2n1-c1ccccc1 [Compound 1, 5-Phenyl-3H-imidazo[4,5-c][1,8]naphthyridin-4(5H)-thione]",IC50,4.8 µM
